Test results taken from patent publication US6352985B1, “Benzimidazole compounds” (Fujisawa Pharmaceutical Co., Ltd., priority 1995, dated 2002).

tested on: not given; test: not given; conditions: not given

SMILES	melting point
Cc1nc2ccc(C(=O)NS(=O)(=O)c3ccccc3)cc2n1Cc1ccccc1Cl [Compound (163), 6-benzenesulfonylcarbamoyl-1-(2-chlorobenzyl)-2-methylbenzimidazole]	273.5 to 274.3 °C
CC(C)c1nc2ccc(C(=O)NS(=O)(=O)c3ccccc3)cc2n1Cc1ccc(-c2ccccc2)cc1.[K]	310.1 to 312.7 °C
CCCc1nc2ccc(C(=O)NS(=O)(=O)c3ccccc3)cc2n1Cc1ccc(-c2ccccc2)cc1.[K]	279 to 282 °C
Cc1nc2ccc(C(=O)NS(=O)(=O)c3cccc4cccnc34)cc2n1Cc1ccccc1Cl.[Na]	348 to 352 °C (dec.)
Cc1nc2ccc(C(=O)NS(=O)(=O)c3ccc(Cl)cc3)cc2n1Cc1ccccc1Cl.[Na]	360 to 362 °C (dec.)
O=C(NS(=O)(=O)c1ccccc1)c1ccc2nc(C3CC3)n(Cc3ccc(-c4ccccc4)cc3)c2c1.[K]	220.8 to 224.8 °C
Cc1nc2ccc(C(=O)NS(=O)(=O)c3ccc4ccccc4c3)cc2n1Cc1ccccc1Cl.[Na]	352 to 354.5 °C
Cc1nc2ccc(C(=O)NS(=O)(=O)C(F)(F)F)cc2n1Cc1ccccc1Cl.Cl	332 to 335 °C (dec.)
Cc1nc2ccc(C(=O)NS(=O)(=O)c3ccc(C(C)(C)C)cc3)cc2n1Cc1ccccc1Cl.[Na]	359.5 to 362 °C

Continued, values first:

melting point	SMILES
111 to 112.4 °C	CCCCS(=O)(=O)NC(=O)c1ccc2nc(C)n(Cc3ccc(C(=O)c4ccccc4)cc3)c2c1 [Compound (373), 1-[(4-benzoyl)benzyl]-6-(1-butanesulfonylcarbamoyl)-2-methylbenzimidazole]
254 to 256 °C	CCCCS(=O)(=O)NC(=O)c1ccc2nc(O)n(Cc3ccc(Cl)cc3Cl)c2c1 [Compound (379), 6-(1-butanesulfonylcarbamoyl)-1-(2,4-dichlorobenzyl)-2-hydroxybenzimidazole]
243.1 to 244.3 °C	Cc1nc2ccc(C=CC(=O)NS(=O)(=O)c3ccccc3)cc2n1Cc1ccccc1Cl [Compound (178), N-benzenesulfonyl-3-[1-(2-chlorobenzyl)-2-methylbenzimidazol-6-yl]acrylamide]
271 to 274 °C	COc1ccc(S(=O)(=O)NC(=O)c2ccc3nc(C)n(Cc4ccccc4Cl)c3c2)cc1 [Compound (217), 1-(2-chlorobenzyl)-6-(4-methoxybenzenesulfonylcarbamoyl)-2-methylbenzimidazole]
225 to 228 °C	CNc1nc2ccc(C(=O)NS(=O)(=O)c3ccccc3)cc2n1Cc1ccc(-c2ccccc2)cc1 [Compound (230), 6-benzenesulfonylcarbamoyl-1-(biphenyl-4-ylmethyl)-2-methylaminobenzimidazole]
288 to 292 °C	Cc1nc2ccc(C(=O)NS(=O)(=O)c3ccc(C(F)(F)F)cc3)cc2n1Cc1ccccc1Cl [Compound (221), 1-(2-chlorobenzyl)-2-methyl-6-[4-(trifluoromethyl)benzenesulfonylcarbamoyl]benzimidazole]
330 to 332 °C	Cc1nc2ccc(C(=O)NS(=O)(=O)c3ccc([N+](=O)[O-])cc3)cc2n1Cc1ccccc1Cl [Compound (220), 1-(2-chlorobenzyl)-2-methyl-6-(4-nitrobenzenesulfonylcarbamoyl)benzimidazole]
266.5 to 267.5 °C	Cc1ccc(C)c(S(=O)(=O)NC(=O)c2ccc3nc(C)n(Cc4ccccc4Cl)c3c2)c1 [Compound (219), 1-(2-chlorobenzyl)-6-(2,5-dimethylbenzenesulfonylcarbamoyl)-2-methylbenzimidazole]
193 to 196 °C	Cc1nc2ccc(C(=O)NS(=O)(=O)Cc3ccccc3)cc2n1Cc1ccccc1Cl [Compound (218), 1-(2-chlorobenzyl)-2-methyl-6-(α-toluenesulfonylcarbamoyl)benzimidazole]
264 to 267 °C	Cc1nc2ccc(C(=O)NS(=O)(=O)c3ccccc3Cl)cc2n1Cc1ccccc1Cl.N [Compound (222), 6-(2-chlorobenzenesulfonylcarbamoyl)-1-(2-chlorobenzyl)-2-methylbenzimidazole ammonium salt]
254.5 to 257.5 °C (dec.)	Cc1nc2ccc(C(=O)NS(=O)(=O)c3cccc(Cl)c3)cc2n1Cc1ccccc1Cl [Compound (209), 6-(3-chlorobenzenesulfonylcarbamoyl)-1-(2-chlorobenzyl)-2-methylbenzimidazole]
352.5 to 355 °C	Nc1nc2ccc(C(=O)NS(=O)(=O)c3ccccc3)cc2n1Cc1ccc(-c2ccccc2)cc1 [Compound (231), 2-amino-6-benzenesulfonylcarbamoyl-1-(biphenyl-4-ylmethyl)benzimidazole]
229.8 to 233 °C	Cc1nc2ccc(CCC(=O)NS(=O)(=O)c3ccccc3)cc2n1Cc1ccccc1Cl [Compound (266), N-benzenesulfonyl-3-[1-(2-chlorobenzyl)-2-methylbenzimidazole-6-yl]propionamide]

tested on: db/db mice; test: Test for activity of decreasing plasma glucose using db/db mice; type: in vivo; conditions: female db/db mice, dose 10 mg/kg mixed with powdered chow for 14 days; difference between db/db and +/+ mouse defined as 100%
Method: Test for activity of decreasing plasma glucose using db/db mice
Five-week-old female mice [C57BL/KsJ-dbm db+/db+, C57BL/KsJ-dbm +m/+m (Jackson Laboratory) were purchased, and were kept for 2 to 3 weeks. Then, these mice were used in the test.
A test compound was mixed with a powdered chow (CE-2, made by Nippon Clea) using a mortar. According to the amount of food intake of the mouse, the mixing ratios, 0.1%, 0.03%, and 0.01% corresponded to 100, 30, and 10 mg/kg body weight, respectively. The mixed chow was changed twice a week. The feed amount and the remaining amount were recorded, and the intake was calculated from the difference therebetween.
The female db/db mice were grouped according to the body weight, the plasma glucose and the plasma triglyceride concentrations. Then, the mixture containing the test compound was administered to the mice for 14 days (from 8 to 10 weeks old). […] Plasma glucose, triglyceride, and insulin concentrations were measured on day 0 and day 14 as well as plasma glucose and triglyceride concentrations on day 7. The body weight was measured on day 0, day 7, and day 14. […]
The plasma glucose was measured by a glucose oxidase method (Glucose CII-Test Wako made by Wako Pure Chemical Industries, Ltd.) using from 10 to 15 μl of plasma. The plasma triglyceride concentration was measured by a GPO-p-chlorophenol method (Triglyceride G-Test Wako made by Wako Pure Chemical Industries, Ltd.) or a GPO-DAOS method (Triglyceride E-Test Wako) using from 10 to 15 μl of plasma. […] The plasma insulin concentration was measured by radio immuno assay method (Phadesef Insulin RIA Kit made by Cabi Pharmacia) using 20 μl of plasma (which can be stored at −20° C.).
The difference in the plasma glucose and the plasma triglyceride concentrations betweeen the db/db mouse and the +/+ mouse was defined as 100%, and the rate (%) of decrease in the plasma glucose and the plasma triglyceride concentrations of the group to which the test compound was administered was calculated.

SMILES	Activity of decreasing plasma glucose (%)
CCCCS(=O)(=O)NC(=O)c1ccc2nc(C)n(Cc3ccc(-c4ccccc4)cc3)c2c1 [Compound (172), 1-(biphenyl-4-ylmethyl)-6-(1-butanesulfonylcarbamoyl)-2-methylbenzimidazole]	70-80%

same assay, conditions: female db/db mice, dose 30 mg/kg mixed with powdered chow for 14 days; difference between db/db and +/+ mouse defined as 100%

SMILES	Activity of decreasing plasma glucose (%)
O=C(NS(=O)(=O)c1ccccc1)c1ccc2nc(C3CC3)n(Cc3ccccc3F)c2c1 [Compound (177), 6-benzenesulfonylcarbamoyl-2-cyclopropyl-1-(2-fluorobenzyl)benzimidazole]	34.5
Cc1nc2ccc(C(=O)NS(=O)(=O)c3ccccc3)cc2n1Cc1ccccc1Cl [Compound (163), 6-benzenesulfonylcarbamoyl-1-(2-chlorobenzyl)-2-methylbenzimidazole]	72

tested on: 3T3-L1 cells (pre-adipocytes); test: Stimulatory activity of triglyceride (TG) accumulation in 3T3-L1 cells (pre-adipocytes); type: cell-based; conditions: test compound 1 × 10^−5 M with insulin; 1×10^−6 M pioglitazone defined as 100%, insulin (+) without the chemical agent defined as 0%
Method: Stimulatory activity of triglyceride (TG) accumulation in 3T3-L1 cells (pre-adipocytes)
3T3-L1 cells just before a confluent state were prepared in an F75 flask. The medium was removed, and the residue was washed twice with 5 ml of PBS (−). The cells were detached using a solution of EDTA and trypsin. Ten milliliters of the medium were added thereto to form a suspension. This suspension was collected in a 50-milliliter centrifuge tube, and was subjected to centrifugation at 1,000 rpm for 5 minutes. Thus, the cells were precipitated, and the supernatant was removed. The cells were re-suspended in 20 ml of the medium, and the number of cells was counted. The suspension was adjusted such that the concentration of the cells reached 6×10^4 cells/ml, and was inoculated into a 24-well plate in an amount of 1 ml/well. In this state, the incubation was conducted in an incubator at 37° C. in 5% CO2 for 2 days.
A solution of 1-mM dexamethasone and 500-mM IBMX was prepared in DMSO. […]
Four to five days after the addition of the test chemical agent and the insulin solution, the 24-well plate was withdrawn from the incubator. […] Subsequently, the residue was extracted twice with isopropyl alcohol, and TG was measured at a wavelength of 410 nm using a TG-measuring kit (acetyl-acetone method). […]

SMILES	Stimulatory activity of TG accumulation (%)
O=C(NS(=O)(=O)Cc1ccccc1)c1ccc2nc(C3CC3)n(Cc3ccccc3F)c2c1 [6-benzylsulfonylcarbamoyl-2-cyclopropyl-1-(2-fluorobenzyl)benzimidazole]	38.2
